According to ChEMBL document CHEMBL1152022, “Double-headed molecules based on linear or angular psoralen and -methylene--butyrolactone: a search for non-phototoxic potential antiproliferative compounds” (Bioorg Med Chem Lett, 1993):
Active and inactive are the calls of the source. No cut-off for these calls is given here.

Key:
Type in all cases: functional, organism-based
[1] = organism: Mus musculus; experiment: Phototoxicity was evaluated at a concentration of 13.9 mM and a UVA dose of 10 J/cm**2 in mouse ear-swelling test; non-phototoxic
[2] = organism: Mus musculus; experiment: Phototoxicity was evaluated at a concentration of 1.4 mM and with an irradiation dose of 6 J/cm**2 in mouse ear-swelling test; induced marked erythema.
[3] = organism: Mus musculus; experiment: Phototoxicity was evaluated at a concentration of 27.7 mM at a UVA dose of 12 J/cm**2 in mouse ear-swelling test; non-phototoxic
[4] = organism: Mus musculus; experiment: Phototoxicity was evaluated at a concentration of 1.4 mM and with an irradiation dose of 6 J/cm**2 in mouse ear-swelling test; non-phototoxic

C=C1CC(CCCCCCCCCCc2cc3c(ccc4ccc(=O)oc43)o2)OC1=O (centres undefined)
Phototoxicity [1]: Not toxic

COc1c2ccoc2cc2oc(=O)ccc12
Phototoxicity [2]: Active

C=C1CC(CCCCCCCCCCOc2c3ccoc3cc3oc(=O)ccc23)OC1=O (centres undefined)
Phototoxicity [3]: Not toxic
Phototoxicity [4]: Not toxic
